# Strand notation (5' to 3'): a small letter for the sugar, then the base; units joined by * are phosphorothioate-linked, units joined directly phosphodiester-linked; [ ] holds rarer units or linkages, { } end groups; capitals alone tell only the bases. e = 2'-O-(2-methoxyethyl) (MOE); [5mC] = 5-methylcytosine; d = 2'-deoxy (DNA)
# Key:
# Assay type in all cases: in vivo, mouse
# GCGR mRNA = GCGR mRNA levels in liver of C57/BL6 mice, single i.p. dose (Example 4, Tables 35-41); conditions: 48 h
# Description: (§1) Eight-week old male C57/BL6 mice (Jackson Laboratory, Bar Harbor, Me.) were administered a single dose of GCGR oligonucleotide by intraperitoneal injection at a concentration of […]. Each dose group consisted of four animals. Shown in Table 31 are the sequences, motifs and conjugates of the GCGR antisense compounds used in this study. Bolded residues indicate 2′-O-methoxyethyl (2′-MOE) moieties. All compounds comprise phosphorothioate internucleoside linkages throughout and each cytosine is replaced with 5-methylcytosine. ISIS 386626, ISIS 386627 and ISIS 386628 further comprise a C16 conjugate group attached to the 2′-O position of the sugar via a diamide linkage (2′-OCH2C(═O)N(H)(CH2)4N(H)C(═O)—(CH2)15CH3). GCGR antisense compounds target published GCGR sequences, including Genbank® Accession No. BC031885.1 (SEQ ID NO: 7).
# (§2) Mice were sacrificed 48 hours following injection to determine serum transaminase levels (Table 32); liver, white adipose tissue (WAT), spleen and kidney weight (Table 33); cholesterol, triglyceride and glucose levels (Table 34); GCGR mRNA levels (Tables 35-41); and full-length and total oligonucleotide concentration in liver and kidney (Table 42). Endpoints were assessed using methods described herein and well known to those of ordinary skill in the art. Data is included from a pre-treatment bleed (Pre-Bleed) and post-treatment bleed (Post-Bleed).
# To determine whether the phenotypic changes shown above correlated with a decrease in GCGR mRNA, treated animals were evaluated for levels of target mRNA in liver by real time PCR according to methods described herein. Tables 35 to 41 show results from direct comparisons of the antisense compounds targeting GCGR nucleic acid for their effect on target expression. Results are expressed as percent of saline control.
# [1] = ALT & AST levels, C57/BL6 mice (Example 4, Table 32); conditions: for ALT Pre-Bleed / AST Pre-Bleed: pre-treatment bleed; for ALT Post-Bleed / AST Post-Bleed: 48 hours following injection
# Description: as §1, §2
# [2] = Organ weights: liver, white adipose tissue, spleen, kidney (Example 4, Table 33); conditions: 48 h, C57/BL6 mice
# Description: as §1, §2
# [3] = Triglyceride, cholesterol and glucose levels, pre-bleed and post-bleed (Example 4, Table 34); design: TRIG Pre-Bleed / TRIG Post-Bleed / CHOL Pre-Bleed / CHOL Post-Bleed / Glucose Pre-Bleed / Glucose Post-Bleed: unit not given here; conditions: C57/BL6 mice; for CHOL Pre-Bleed / Glucose Pre-Bleed / TRIG Pre-Bleed: pre-treatment bleed; for CHOL Post-Bleed / Glucose Post-Bleed / TRIG Post-Bleed: post-treatment bleed, 48 h
# [4] = Total and full-length antisense compound concentrations in liver and kidney (Example 4, Table 42); conditions: C57/BL6 mice; single i.p. dose; 48 h; dose not given
# Description: as §1, §2
# Treatment with the 2-10-2 MOE gapmers led to a significant dose-dependent decrease in GCGR mRNA expression. […] To determine whether the observed increase in efficiency with the short antisense compounds is due to an increase in antisense compound accumulation, full-length and total antisense compound concentration in the liver and kidney were determined.
substance,measurement,setting,value
148364 (antisense eT*eG*e[5mC]*eA*e[5mC]*dT*dT*dT*dG*dT*dG*dG*dT*dA*d[5mC]*e[5mC]*eA*eA*eG*eG) [compound 148364],GCGR mRNA levels in liver,"GCGR mRNA; 6.25 mg/kg single i.p., Table 35 comparison ISIS 148364 & ISIS 386626",62% of saline control
same,GCGR mRNA levels in liver,"GCGR mRNA; 6.25 mg/kg single i.p., Table 36 comparison ISIS 148364 & ISIS 386627",86% of saline control
same,GCGR mRNA levels in liver,"GCGR mRNA; 6.25 mg/kg single i.p., Table 37 comparison ISIS 148364 & ISIS 386593",86% of saline control
same,GCGR mRNA levels in liver,"GCGR mRNA; 6.25 mg/kg single i.p., Table 38 comparison ISIS 148364 & ISIS 386628",101% of saline control
same,GCGR mRNA levels in liver,"GCGR mRNA; 6.25 mg/kg single i.p., Table 39 comparison ISIS 148364 & ISIS 386594",96% of saline control
same,GCGR mRNA levels in liver,"GCGR mRNA; 12.5 mg/kg single i.p., Table 35 comparison ISIS 148364 & ISIS 386626",87% of saline control
same,GCGR mRNA levels in liver,"GCGR mRNA; 12.5 mg/kg single i.p., Table 36 comparison ISIS 148364 & ISIS 386627",105% of saline control
same,GCGR mRNA levels in liver,"GCGR mRNA; 12.5 mg/kg single i.p., Table 37 comparison ISIS 148364 & ISIS 386593",105% of saline control
same,GCGR mRNA levels in liver,"GCGR mRNA; 12.5 mg/kg single i.p., Table 38 comparison ISIS 148364 & ISIS 386628",98% of saline control
same,GCGR mRNA levels in liver,"GCGR mRNA; 12.5 mg/kg single i.p., Table 39 comparison ISIS 148364 & ISIS 386594",102% of saline control
same,GCGR mRNA levels in liver,"GCGR mRNA; 25 mg/kg single i.p., Table 35 comparison ISIS 148364 & ISIS 386626",79% of saline control
same,GCGR mRNA levels in liver,"GCGR mRNA; 25 mg/kg single i.p., Table 36 comparison ISIS 148364 & ISIS 386627",87% of saline control
same,GCGR mRNA levels in liver,"GCGR mRNA; 25 mg/kg single i.p., Table 37 comparison ISIS 148364 & ISIS 386593",74% of saline control
same,GCGR mRNA levels in liver,"GCGR mRNA; 25 mg/kg single i.p., Table 38 comparison ISIS 148364 & ISIS 386628",77% of saline control
same,GCGR mRNA levels in liver,"GCGR mRNA; 25 mg/kg single i.p., Table 39 comparison ISIS 148364 & ISIS 386594",98% of saline control
same,GCGR mRNA levels in liver,"GCGR mRNA; 50 mg/kg single i.p., Table 35 comparison ISIS 148364 & ISIS 386626",36% of saline control
same,GCGR mRNA levels in liver,"GCGR mRNA; 50 mg/kg single i.p., Table 36 comparison ISIS 148364 & ISIS 386627",63% of saline control
same,GCGR mRNA levels in liver,"GCGR mRNA; 50 mg/kg single i.p., Table 37 comparison ISIS 148364 & ISIS 386593",56% of saline control
same,GCGR mRNA levels in liver,"GCGR mRNA; 50 mg/kg single i.p., Table 38 comparison ISIS 148364 & ISIS 386628",42% of saline control
same,GCGR mRNA levels in liver,"GCGR mRNA; 50 mg/kg single i.p., Table 39 comparison ISIS 148364 & ISIS 386594",59% of saline control
same,ALT Pre-Bleed,[1]; 6.25 mg/kg dose group,28 IU/L
same,AST Pre-Bleed,[1]; 6.25 mg/kg dose group,47 IU/L
same,ALT Pre-Bleed,[1]; 12.5 mg/kg dose group,23 IU/L
same,AST Pre-Bleed,[1]; 12.5 mg/kg dose group,44 IU/L
same,ALT Pre-Bleed,[1]; 25 mg/kg dose group,26 IU/L
same,AST Pre-Bleed,[1]; 25 mg/kg dose group,42 IU/L
same,ALT Pre-Bleed,[1]; 50 mg/kg dose group,24 IU/L
same,AST Pre-Bleed,[1]; 50 mg/kg dose group,40 IU/L
same,ALT Post-Bleed,[1]; single i.p. dose 6.25 mg/kg,34 IU/L
same,AST Post-Bleed,[1]; single i.p. dose 6.25 mg/kg,76 IU/L
same,ALT Post-Bleed,[1]; single i.p. dose 12.5 mg/kg,32 IU/L
same,AST Post-Bleed,[1]; single i.p. dose 12.5 mg/kg,69 IU/L
same,ALT Post-Bleed,[1]; single i.p. dose 25 mg/kg,35 IU/L
same,AST Post-Bleed,[1]; single i.p. dose 25 mg/kg,87 IU/L
same,ALT Post-Bleed,[1]; single i.p. dose 50 mg/kg,40 IU/L
same,AST Post-Bleed,[1]; single i.p. dose 50 mg/kg,115 IU/L
same,Organ weight: Kidney,[2]; 6.25 mg/kg single i.p.,104 % saline control
same,Organ weight: Liver,[2]; 6.25 mg/kg single i.p.,101 % saline control
same,Organ weight: Spleen,[2]; 6.25 mg/kg single i.p.,113 % saline control
same,Organ weight: WAT,[2]; 6.25 mg/kg single i.p.,89 % saline control
same,Organ weight: Kidney,[2]; 12.5 mg/kg single i.p.,108 % saline control
same,Organ weight: Liver,[2]; 12.5 mg/kg single i.p.,100 % saline control
same,Organ weight: Spleen,[2]; 12.5 mg/kg single i.p.,96 % saline control
same,Organ weight: WAT,[2]; 12.5 mg/kg single i.p.,84 % saline control
same,Organ weight: Kidney,[2]; 25 mg/kg single i.p.,112 % saline control
same,Organ weight: Liver,[2]; 25 mg/kg single i.p.,103 % saline control
same,Organ weight: Spleen,[2]; 25 mg/kg single i.p.,115 % saline control
same,Organ weight: WAT,[2]; 25 mg/kg single i.p.,75 % saline control
same,Organ weight: Kidney,[2]; 50 mg/kg single i.p.,108 % saline control
same,Organ weight: Liver,[2]; 50 mg/kg single i.p.,103 % saline control
same,Organ weight: Spleen,[2]; 50 mg/kg single i.p.,123 % saline control
same,Organ weight: WAT,[2]; 50 mg/kg single i.p.,80 % saline control
same,CHOL Pre-Bleed,[3]; 6.25 mg/kg group,86
same,Glucose Pre-Bleed,[3]; 6.25 mg/kg group,226
same,TRIG Pre-Bleed,[3]; 6.25 mg/kg group,86
same,CHOL Post-Bleed,[3]; 6.25 mg/kg single i.p.,89
same,Glucose Post-Bleed,[3]; 6.25 mg/kg single i.p.,215
same,TRIG Post-Bleed,[3]; 6.25 mg/kg single i.p.,162
same,CHOL Pre-Bleed,[3]; 12.5 mg/kg group,85
same,Glucose Pre-Bleed,[3]; 12.5 mg/kg group,198
same,TRIG Pre-Bleed,[3]; 12.5 mg/kg group,106
same,CHOL Post-Bleed,[3]; 12.5 mg/kg single i.p.,89
same,Glucose Post-Bleed,[3]; 12.5 mg/kg single i.p.,256
same,TRIG Post-Bleed,[3]; 12.5 mg/kg single i.p.,179
same,CHOL Pre-Bleed,[3]; 25 mg/kg group,83
same,Glucose Pre-Bleed,[3]; 25 mg/kg group,219
same,TRIG Pre-Bleed,[3]; 25 mg/kg group,115
same,CHOL Post-Bleed,[3]; 25 mg/kg single i.p.,96
same,Glucose Post-Bleed,[3]; 25 mg/kg single i.p.,239
same,TRIG Post-Bleed,[3]; 25 mg/kg single i.p.,200
same,CHOL Pre-Bleed,[3]; 50 mg/kg group,81
same,Glucose Pre-Bleed,[3]; 50 mg/kg group,207
same,TRIG Pre-Bleed,[3]; 50 mg/kg group,110
same,CHOL Post-Bleed,[3]; 50 mg/kg single i.p.,94
same,Glucose Post-Bleed,[3]; 50 mg/kg single i.p.,228
same,TRIG Post-Bleed,[3]; 50 mg/kg single i.p.,177
same,"Full-length antisense compound concentration, Kidney",[4],58 µg/g
same,"Full-length antisense compound concentration, Liver",[4],46 µg/g
same,"Total antisense compound concentration, Kidney",[4],90 µg/g
same,"Total antisense compound concentration, Liver",[4],54 µg/g

# From patent publication US8188059B2, “Compounds and methods for modulating expression of GCGR” (Isis Pharmaceuticals, Inc., priority 2006, dated 2012)
